Data published in ChEMBL document CHEMBL6092222 (J Med Chem, 2024).
Converted amounts (≈) assume the structure as drawn.

Tests used:
[1] = Tmax in Sprague-Dawley rat at 5 mg/kg, po measured for 24 hrs by UPLC-MS/MS analysis; format: ADME, organism-based; details: in vivo
physchem [2] = details: aqueous buffer, pH 1
Description: Solubility of compound in aqueous buffer at pH 1 at 25 degreeC by reversed phase-HPLC analysis

[3] = Prodrug conversion in Sprague-Dawley rat assessed as Cmax of 6-(cyclopropanecarboxamido)-4-((2-methoxy-3-(2-methyl-2H-tetrazol-5-yl)phenyl)amino)-N-(methyl-d3)nicotinamide metabolite at 150 mg/kg, po measured for 24 hrs by UPLC-MS/MS analysis; format: ADME, organism-based; details: in vivo
[4] = Tmax in Sprague-Dawley rat at 25 mg/kg, po measured for 24 hrs by UPLC-MS/MS analysis; format: ADME, organism-based; details: in vivo
[5] = Prodrug conversion in Pentagastrine-pretreated Sprague-Dawley rat assessed as Tmax of 6-(cyclopropanecarboxamido)-4-((2-methoxy-3-(2-methyl-2H-tetrazol-5-yl)phenyl)amino)-N-(methyl-d3)nicotinamide metabolite at 10 mg/kg, po measured for 24 hrs by UPLC-MS/MS analysis; format: ADME, organism-based; details: in vivo
physchem [6] = details: aqueous buffer, pH 6.5
Description: Solubility of compound in aqueous buffer at pH 6.5 at 25 degreeC by reversed phase-HPLC analysis

[7] = Prodrug conversion in Sprague-Dawley rat assessed as Tmax of 6-(cyclopropanecarboxamido)-4-((2-methoxy-3-(2-methyl-2H-tetrazol-5-yl)phenyl)amino)-N-(methyl-d3)nicotinamide metabolite at 25 mg/kg, po measured for 24 hrs by UPLC-MS/MS analysis; format: ADME, organism-based; details: in vivo
[8] = AUC in Sprague-Dawley rat at 5 mg/kg, po measured for 24 hrs by UPLC-MS/MS analysis; format: ADME, organism-based; details: in vivo
[9] = Prodrug conversion in Sprague-Dawley rat assessed as AUC of 6-(cyclopropanecarboxamido)-4-((2-methoxy-3-(2-methyl-2H-tetrazol-5-yl)phenyl)amino)-N-(methyl-d3)nicotinamide metabolite at 25 mg/kg, po measured for 24 hrs by UPLC-MS/MS analysis; format: ADME, organism-based; details: in vivo
[10] = AUC in Sprague-Dawley rat at 25 mg/kg, po measured for 24 hrs by UPLC-MS/MS analysis; format: ADME, organism-based; details: in vivo
[11] = Solubility of compound in FeSSIF at pH 5 by reversed-phase UPLC analysis; format: physicochemical
[12] = Prodrug conversion in Famotidine-pretreated Sprague-Dawley rat assessed as AUC (total) of 6-(cyclopropanecarboxamido)-4-((2-methoxy-3-(2-methyl-2H-tetrazol-5-yl)phenyl)amino)-N-(methyl-d3)nicotinamide metabolite at 10 mg/kg, po measured for 24 hrs by UPLC-MS/MS analysis; format: ADME, organism-based; details: in vivo
[13] = Prodrug conversion in Sprague-Dawley rat assessed as AUC of 6-(cyclopropanecarboxamido)-4-((2-methoxy-3-(2-methyl-2H-tetrazol-5-yl)phenyl)amino)-N-(methyl-d3)nicotinamide metabolite at 5 mg/kg, po measured for 24 hrs by UPLC-MS/MS analysis; format: ADME, organism-based; details: in vivo
[14] = Prodrug conversion in Famotidine-pretreated Sprague-Dawley rat assessed as Tmax of 6-(cyclopropanecarboxamido)-4-((2-methoxy-3-(2-methyl-2H-tetrazol-5-yl)phenyl)amino)-N-(methyl-d3)nicotinamide metabolite at 10 mg/kg, po measured for 24 hrs by UPLC-MS/MS analysis; format: ADME, organism-based; details: in vivo
[15] = target: Intestinal-type alkaline phosphatase (Homo sapiens, UniProt P09923); test: (§1) Prodrug conversion in tris buffer at pH 7.4 assessed as intestinal recombinant human ALP-mediated 6-(cyclopropanecarboxamido)-4-((2-methoxy-3-(2-methyl-2H-tetrazol-5-yl)phenyl)amino)-N-(methyl-d3)nicotinamide metabolite formation by measuring half life of metabolite at 1 uM incubated for 30 mins by UPLC-MS/MS analysis; format: ADME; details: pH 7.4, 0.5 h
[16] = Prodrug conversion in Sprague-Dawley rat assessed as AUC of 6-(cyclopropanecarboxamido)-4-((2-methoxy-3-(2-methyl-2H-tetrazol-5-yl)phenyl)amino)-N-(methyl-d3)nicotinamide metabolite at 150 mg/kg, po measured for 24 hrs by UPLC-MS/MS analysis; format: ADME, organism-based; details: in vivo
[17] = Prodrug conversion in Sprague-Dawley rat assessed as Cmax of 6-(cyclopropanecarboxamido)-4-((2-methoxy-3-(2-methyl-2H-tetrazol-5-yl)phenyl)amino)-N-(methyl-d3)nicotinamide metabolite at 5 mg/kg, po measured for 24 hrs by UPLC-MS/MS analysis; format: ADME, organism-based; details: in vivo
[18] = Prodrug conversion in Sprague-Dawley rat assessed as Tmax of 6-(cyclopropanecarboxamido)-4-((2-methoxy-3-(2-methyl-2H-tetrazol-5-yl)phenyl)amino)-N-(methyl-d3)nicotinamide metabolite at 5 mg/kg, po measured for 24 hrs by UPLC-MS/MS analysis; format: ADME, organism-based; details: in vivo
[19] = Prodrug conversion in Sprague-Dawley rat assessed as Cmax of 6-(cyclopropanecarboxamido)-4-((2-methoxy-3-(2-methyl-2H-tetrazol-5-yl)phenyl)amino)-N-(methyl-d3)nicotinamide metabolite at 25 mg/kg, po measured for 24 hrs by UPLC-MS/MS analysis; format: ADME, organism-based; details: in vivo
[20] = Chemical stability of compound in phosphate buffer at pH 6.5 at 37 degreeC assessed as half life measured for 24 hrs by reversed phase-HPLC analysis; format: physicochemical
[21] = Prodrug conversion in Sprague-Dawley rat assessed as Tmax of 6-(cyclopropanecarboxamido)-4-((2-methoxy-3-(2-methyl-2H-tetrazol-5-yl)phenyl)amino)-N-(methyl-d3)nicotinamide metabolite at 150 mg/kg, po measured for 24 hrs by UPLC-MS/MS analysis; format: ADME, organism-based; details: in vivo
[22] = Cmax in Sprague-Dawley rat at 25 mg/kg, po measured for 24 hrs by UPLC-MS/MS analysis; format: ADME, organism-based; details: in vivo
[23] = Cmax in Sprague-Dawley rat at 5 mg/kg, po measured for 24 hrs by UPLC-MS/MS analysis; format: ADME, organism-based; details: in vivo
[24] = Solubility of compound in FaSSIF at pH 6.5 by reversed-phase UPLC analysis; format: physicochemical
[25] = target: Intestinal-type alkaline phosphatase 1 (Rattus norvegicus, UniProt P15693); test: as §1, with “rat” for “human”; format: ADME; details: pH 7.4, 0.5 h
[26] = Chemical stability of compound in 0.1 M HCl at pH 1 at 37 degreeC assessed as half life measured for 24 hrs by reversed phase-HPLC analysis; format: physicochemical
physchem [27] = details: aqueous buffer, pH 4
Description: Solubility of compound in aqueous buffer at pH 4 at 25 degreeC by reversed phase-HPLC analysis

[28] = Chemical stability of compound in acetate buffer at pH 4 at 37 degreeC assessed as half life measured for 24 hrs by reversed phase-HPLC analysis; format: physicochemical
[29] = Prodrug conversion in Pentagastrine-pretreated Sprague-Dawley rat assessed as AUC (total) of 6-(cyclopropanecarboxamido)-4-((2-methoxy-3-(2-methyl-2H-tetrazol-5-yl)phenyl)amino)-N-(methyl-d3)nicotinamide metabolite at 10 mg/kg, po measured for 24 hrs by UPLC-MS/MS analysis; format: ADME, organism-based; details: in vivo
[30] = Prodrug conversion in Famotidine-pretreated Sprague-Dawley rat assessed as Cmax of 6-(cyclopropanecarboxamido)-4-((2-methoxy-3-(2-methyl-2H-tetrazol-5-yl)phenyl)amino)-N-(methyl-d3)nicotinamide metabolite at 10 mg/kg, po measured for 24 hrs by UPLC-MS/MS analysis; format: ADME, organism-based; details: in vivo
[31] = Prodrug conversion in Pentagastrine-pretreated Sprague-Dawley rat assessed as Cmax of 6-(cyclopropanecarboxamido)-4-((2-methoxy-3-(2-methyl-2H-tetrazol-5-yl)phenyl)amino)-N-(methyl-d3)nicotinamide metabolite at 10 mg/kg, po measured for 24 hrs by UPLC-MS/MS analysis; format: ADME, organism-based; details: in vivo

Sequence of Intestinal-type alkaline phosphatase (P09923 whole entry): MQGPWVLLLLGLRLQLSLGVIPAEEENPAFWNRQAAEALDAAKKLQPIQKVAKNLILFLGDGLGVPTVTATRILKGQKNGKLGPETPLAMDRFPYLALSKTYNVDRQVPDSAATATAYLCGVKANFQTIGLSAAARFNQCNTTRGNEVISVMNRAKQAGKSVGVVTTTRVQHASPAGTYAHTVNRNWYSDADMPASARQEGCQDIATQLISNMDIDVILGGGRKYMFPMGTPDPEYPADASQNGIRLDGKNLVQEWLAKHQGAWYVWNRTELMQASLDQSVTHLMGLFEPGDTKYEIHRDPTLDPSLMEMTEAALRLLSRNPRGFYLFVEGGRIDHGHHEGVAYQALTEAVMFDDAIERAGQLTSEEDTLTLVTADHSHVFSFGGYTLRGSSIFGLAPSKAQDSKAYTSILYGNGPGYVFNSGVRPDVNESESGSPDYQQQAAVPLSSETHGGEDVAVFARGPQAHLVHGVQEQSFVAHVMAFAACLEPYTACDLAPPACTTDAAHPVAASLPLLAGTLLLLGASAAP
Sequence of Intestinal-type alkaline phosphatase 1 (P15693 whole entry): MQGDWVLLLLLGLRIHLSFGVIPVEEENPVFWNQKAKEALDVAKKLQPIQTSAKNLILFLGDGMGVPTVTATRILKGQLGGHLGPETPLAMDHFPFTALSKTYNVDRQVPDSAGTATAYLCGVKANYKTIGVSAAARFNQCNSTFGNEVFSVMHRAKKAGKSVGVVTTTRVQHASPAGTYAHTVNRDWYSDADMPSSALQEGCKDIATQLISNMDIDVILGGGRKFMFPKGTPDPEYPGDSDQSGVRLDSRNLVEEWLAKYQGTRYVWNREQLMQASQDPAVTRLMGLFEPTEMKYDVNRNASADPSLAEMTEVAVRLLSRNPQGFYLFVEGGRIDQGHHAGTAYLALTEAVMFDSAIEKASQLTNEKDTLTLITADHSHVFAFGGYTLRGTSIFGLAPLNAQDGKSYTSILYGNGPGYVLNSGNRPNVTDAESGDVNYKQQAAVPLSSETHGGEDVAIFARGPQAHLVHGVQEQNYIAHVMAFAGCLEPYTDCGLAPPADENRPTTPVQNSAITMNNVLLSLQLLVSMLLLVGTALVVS

Tmax [1]: Below_limit_of_detection | solubility (physchem [2]): 16 µg/mL (≈ 29.9 µM) | Cmax [3]: 58.2 µM | Tmax [4]: Below_limit_of_detection | Tmax [5]: 1 h | solubility (physchem [6]): 660 µg/mL (≈ 1230 µM) | Tmax [7]: 3 h | AUC [8]: Below_limit_of_detection | AUC [9]: 96.9 µM·h | AUC [10]: Below_limit_of_detection | solubility [11]: 100 µg/mL (≈ 187 µM) | AUC [12]: 69 µM·h | AUC [13]: 19.2 µM·h | Tmax [14]: 1.5 h | t1/2 [15]: < 5 min | AUC [16]: 804.3 µM·h | Cmax [17]: 4.91 µM | Tmax [18]: 0.5 h | Cmax [19]: 13 µM | half-life [20]: 67.1 h | Tmax [21]: 3 h | Cmax [22]: Below_limit_of_detection | Cmax [23]: Below_limit_of_detection | solubility [24]: 1630 µg/mL (≈ 3040 µM) | t1/2 [25]: < 5 min | half-life [26]: > 500 h | solubility (physchem [27]): 27 µg/mL (≈ 50.4 µM) | half-life [28]: 286 h | AUC [29]: 63 µM·h | Cmax [30]: 12.4 µM | Cmax [31]: 11.4 µM
SMILES: [2H]C([2H])([2H])NC(=O)c1cn(COP(=O)(O)O)/c(=N/C(=O)C2CC2)cc1Nc1cccc(-c2nnn(C)n2)c1OC
